Experimental data from US20250129103A1, “METHODS FOR TREATMENT OF CANCER” (Frontier Medicines Corporation, priority 2022, published 2025).
≈ marks a conversion by molar mass, not a printed value.

Columns and labels:
[1] = molecular target: KRAS G12C (GMPPNP-loaded) and cRAF (Ras-binding domain) interaction (Homo sapiens (Human), UniProt P01116, C118S/C51S/C80L/G12C); experiment: Inhibition of KRAS G12C and cRAF binding (AlphaScreen); details: KRAS G12C loaded with GMPPNP, cRaf RBD, 2 hours preincubation; read-out: Raf-1 RBD K-Ras IC50
Summary of the method: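 AlphaScreen readout (680 nm excitation, 570 nm emission) of RBD binding after a 60-90 min bead step at room temperature. This step follows 2 h compound exposure of GMPPNP-preloaded KRAS G12C in Hepes pH 7.4 buffer with MgCl2 and 10 μM GMPPNP.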

[2] = molecular target: KRAS G12C (GMPPNP-loaded) and PI3Ka (Ras-binding domain) interaction (Homo sapiens (Human), UniProt P01116, C118S/C51S/C80L/G12C); experiment: Inhibition of KRAS G12C and PI3Ka binding (AlphaScreen); details: KRAS G12C loaded with GMPPNP, PI3Ka RBD, 2 hours preincubation; read-out: PI3K RBD K-Ras IC50
Experimental: The AlphaScreen technology was used to determine IC50S for compound inhibition of KRAS G12C (present as the Cys-light (C51S, C80L and C118S), truncated version comprising amino acids 1-169) and PI3Ka interaction. Compounds were diluted in 100% DMSO and each compound concentration was spotted at 200 nl/well onto low volume, white 384 well plates. The KRAS G12C contained a biotin-AviTag and the PI3Ka, as Ras-binding domain (amino acids 157-300, RBD), was His-tagged. KRAS G12C was preloaded with the GTP analogue Guanosine 5′-[β,γ-imido]triphosphate (GMPPNP). The KRAS G12C was diluted in 25 mM Hepes, pH 7.4, 150 mM NaCl, 5 mM MgCl2, 0.01% TritonX-100 and 10 μM GMPPNP and added at 10 ul/well to compound-spotted plates resulting in a DMSO concentration of 2%. Plates were incubated for 2 hours. A mixture of RBD and the AlphaScreen streptavidin donor and nickel chelate acceptor beads diluted in 25 mM Hepes, pH 7.4, 150 mM NaCl, 5 mM MgCl2, 0.01% TritonX-100 and 2% DMSO was then added at 10 ul/well and incubated for 60-90 minutes before the samples were read for emission at 570 nm after excitation of the donor beads at 680 nm. All incubations were performed at room temperature. The final top compound concentration was 50 μM with 1:3 titrations for 10-point dose response curves. Final assay conditions were 1.5 nM KRAS G12C, 100 nM RBD, 1.25 ug/ml of AlphaScreen donor beads and 10 μg/ml AlphaLISA acceptor beads. IC50s were determined using nonlinear regression fit of [inhibitor] vs. response (4 parameters). […]

[3] = Determination of logD (1-octanol / phosphate buffer pH 7.4); type: physicochemical; details: 1-octanol/phosphate buffer, pH 7.4, pH 7.4, 1-octanol/phosphate buffer; read-out: Log D, pH 7.4
Summary of the method: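 Each phase analysed by LCMS after 1 h shaking at 800 rpm and centrifugation, room temperature. Phases were mutually saturated 1-octanol and 100 mM phosphate buffer at pH 7.4. LogD derived from the phase concentrations.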

[4] = Determination of kinetic solubility (pH 7.4); type: physicochemical; details: phosphate buffer, pH 7.4, aqueous buffer, kinetic from dmso stock, 50 mM phosphate buffer pH 7.4, read-out: Ksol, pH 7.4
Summary of the method: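 Solubility taken from filtrate peak areas on a calibration curve (HPLC-UV, LC-MS/MS). Before filtration and centrifugation, compound was shaken for 2 h at room temperature in pH 7.4 50 mM phosphate buffer.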

KRAS G12C (GMPPNP-loaded) and cRAF (Ras-binding domain) interaction, sequence (P01116 other isoform, or with tags, fused parts or gaps G12C/C51S/C80L/C118S): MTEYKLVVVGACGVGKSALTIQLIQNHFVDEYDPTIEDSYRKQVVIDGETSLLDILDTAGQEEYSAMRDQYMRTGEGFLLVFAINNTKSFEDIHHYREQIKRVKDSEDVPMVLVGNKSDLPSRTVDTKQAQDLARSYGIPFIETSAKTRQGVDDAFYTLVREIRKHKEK
KRAS G12C (GMPPNP-loaded) and PI3Ka (Ras-binding domain) interaction, sequence (P01116 other isoform, or with tags, fused parts or gaps G12C/C51S/C80L/C118S): as above

SMILES: N#CC[C@H]1CN(c2nc(OC[C@@]34CCCN3C[C@H](F)C4)nc3c(F)c(-c4cccc(Cl)c4C4CC4)ncc23)CCN1C(=O)/C=C/CN1[C@@H]2CC[C@H]1COC2 [Compound 100, 2-((S)-1-((E)-4-((1R,5S)-3-oxa-8-azabicyclo[3.2.1]octan-8-yl)but-2-enoyl)-4-(7-(3-chloro-2-cyclopropylphenyl)-8-fluoro-2-(((2R,7aS)-2-fluorotetrahydro-1H-pyrrolizin-7a(5H)-yl)methoxy)pyrido[4,3-d]pyrimidin-4-yl)piperazin-2-yl)acetonitrile]
- IC50 [1]: < 10 nM
- IC50 [2]: < 10 nM

SMILES: CO[C@@H]1CCN(C/C=C/C(=O)N2CCN(c3nc(OC[C@@]45CCCN4C[C@H](F)C5)nc4c(F)c(-c5cccc6ccc(F)c(F)c56)ncc34)C[C@@H]2CC#N)C1 [Compound 216]
- IC50 [1]: < 10 nM
- IC50 [2]: < 10 nM

SMILES: CC(F)(F)c1noc(/C=C/C(=O)N2CCN(c3nc(OC[C@@]45CCCN4C[C@H](F)C5)nc4c3CCN(c3cccc5cccc(Cl)c35)C4)C[C@@H]2CC#N)n1 [Example 12, 2-((S)-4-(7-(8-chloronaphthalen-1-yl)-2-(((2R,7aS)-2-fluorohexahydro-1H-pyrrolizin-7a-yl)methoxy)-5,6,7,8-tetrahydropyrido[3,4-d]pyrimidin-4-yl)-1-((E)-3-(3-(1,1-difluoroethyl)-1,2,4-oxadiazol-5-yl)acryloyl)piperazin-2-yl)acetonitrile]
- IC50 [1]: < 10 nM
- IC50 [2]: < 10 nM

SMILES: CN1CCC1/C=C/C(=O)N1CCN(c2nc(OC[C@@]34CCCN3C[C@H](F)C4)nc3c(F)c(-c4cccc5cccc(Cl)c45)ncc23)C[C@@H]1CC#N (some centres unmarked) [Compound 51]
- IC50 [1]: 10 to 100 nM
- IC50 [2]: 10 to 100 nM

SMILES: N#CC[C@H]1CN(c2nc(OCC34CCCN3CCC4)nc3c2CCN(c2cccc4cccc(Cl)c24)C3)CCN1C(=O)/C=C/CN1CCCCC1 [Compound 170]
- IC50 [1]: < 10 nM
- IC50 [2]: < 10 nM

SMILES: CN(C/C=C/C(=O)N1CCN(c2nc(OCC34CCCN3CCC4)nc3c2CCN(c2cccc4cccc(Cl)c24)C3)C[C@@H]1CC#N)CC1COC1 [Compound 318]
- IC50 [1]: < 10 nM
- IC50 [2]: < 10 nM

SMILES: N#CC[C@H]1CN(c2nc(OC[C@@]34CCCN3C[C@H](F)C4)nc3c(F)c(-c4cccc5cccc(Cl)c45)ncc23)CCN1C(=O)/C=C/CN1CCSCC1 [Compound 97, 2-((S)-4-(7-(8-chloronaphthalen-1-yl)-8-fluoro-2-(((2R,7aS)-2-fluorohexahydro-1H-pyrrolizin-7a-yl)methoxy)pyrido[4,3-d]pyrimidin-4-yl)-1-((E)-4-thiomorpholinobut-2-enoyl)piperazin-2-yl)acetonitrile]
- IC50 [1]: < 10 nM
- IC50 [2]: < 10 nM

SMILES: N#CC[C@H]1CN(c2nc(OCC34CCCN3CCC4)nc3c2CCN(c2cccc4cccc(Cl)c24)C3)CCN1C(=O)/C=C/CN1CCN(C2COC2)CC1 [Compound 317]
- logD [3]: 2.01
- IC50 [1]: < 10 nM
- solubility kinetic at 2 h [4]: 114 µg/mL (≈ 148 µM)

SMILES: CC(C)(O)c1noc(/C=C/C(=O)N2CCN(c3nc(OCC45CCCN4CCC5)nc4c3CCN(c3cccc5cccc(Cl)c35)C4)C[C@@H]2CC#N)n1 [Example 16, (S,E)-2-(4-(7-(8-chloronaphthalen-1-yl)-2-((hexahydro-1H-pyrrolizin-7a-yl)methoxy)-5,6,7,8-tetrahydropyrido[3,4-d]pyrimidin-4-yl)-1-(3-(3-(2-hydroxypropan-2-yl)-1,2,4-oxadiazol-5-yl)acryloyl)piperazin-2-yl)acetonitrile]
- logD [3]: 3.04
- IC50 [1]: 10 to 100 nM
- solubility kinetic at 2 h [4]: 73.1 µg/mL (≈ 99 µM)

SMILES: N#CC[C@H]1CN(c2nc(OC[C@@]34CCCN3C[C@H](F)C4)nc3c(F)c(-c4cccc5cccc(F)c45)ncc23)CCN1C(=O)/C=C/CN1CC2CCC(C1)O2 [Compound 245]
- logD [3]: 2.91
- IC50 [1]: 10 to 100 nM
- solubility kinetic at 2 h [4]: 74.4 µg/mL (≈ 98.8 µM)

SMILES: N#CC[C@H]1CN(c2nc(OCC34CCCN3CCC4)nc3c(F)c(-c4cccc5cccc(Cl)c45)ncc23)CCN1C(=O)/C=C/c1nc(C2CC2)no1 [Compound 24]
- logD [3]: 2.71
- IC50 [1]: 100 to 500 nM
- solubility kinetic at 2 h [4]: 38.5 µg/mL (≈ 52.4 µM)
